“Also recorded” adds a separate entry of the source.
Key:
[1] = tested on: PBMCs from Crohn's disease patients without Nod2 mutations; test: Cytokine response of PBMCs from Crohn's disease patients without Nod2 mutations; format: cell-based, human; conditions: PBMCs from non-Nod2 Crohn's disease patients; 50 nM; overnight (18 hours)
Procedure: (§1) FIG. 2. Response to muramyl peptides of PBMCs from healthy donors (CTR), Crohn's disease patients without defects in Nod2 (Crohn's) or Crohn's disease patients homozygous for the frameshift mutation (Nod2 fs). IL-1β, TNF and IL-10 were measured from the cell culture medium. Intracellular IL-1α was measured from cell lysates. All muramyl peptides (all 50 nM) were added directly to the cell culture medium for 18 hours.
(§2) FIG. 3. Response to peptidoglycans of PBMCs from healthy donors (CTR), Crohn's disease patients without defects in Nod2 (Crohn's) or Crohn's disease patients homozygous for the frameshift mutation (Nod2fs). IL-1β, TNF and IL-10 were measured from the cell culture medium. Intracellular IL-1α was measured from cell lysates. All peptidoglycans (all at 1 μg/ml) and LPS (100 ng/ml) were added directly to the cell culture medium for 18 hours.
(§3) FIG. 5. Analysis of the synergistic activation of PBMCs by M-TriDAP plus either LPS or LTA. PBMCs from healthy donors (CTR), Crohn's disease patients without defects in Nod2 (Crohn's) or Crohn's disease patients homozygous for the frameshift mutation (Nod2 fs) were analyzed. Cells were stimulated either with M-TriDAP (MTP(DAP) on the figure), LPS or LTA alone or in combination; LPS+M-TriDAP or LTA+M-TriDAP with the agonists added simultaneously, IL-1β, TNF and IL-10 were measured from the cell culture medium. Intracellular IL-1α was measured from cell lysates, LPS (40 pg/ml), LTA (5 μg/ml) and M-TriDAP (50 nM) were added directly to the cell culture medium for 18 hours.
(§4) The six muramyl peptides characterized above (MDP, M-TriLys, M-TetraLys, anhydro-M-TriLys, anhydro-M-TetraLys and M-TriDAP) were used to stimulate PBMCs obtained from human blood. PBMCs from three groups of individuals were collected: healthy donors (CTR), Crohn's disease patients without Nod2 mutations (Crohn) and Crohn's disease patients carrying homozygous Nod2fs frameshift mutation (Nod2fs). […] IL-1β, IL-10 and TNFα were measured in the supernatant, while intracellular IL-1α was measured from cell lysates (FIG. 2). […]

Nod2 = biological target: T1, Nod2 (Homo sapiens, UniProt Q9HC29); test: Nod2-dependent NF-κB luciferase reporter activation in transfected HEK293T cells; format: cell-based; conditions: for activation of Nod2 (NF-κB-driven luciferase reporter): muramyl peptides 10 nM up to 250 nM, HEK293T cells expressing Nod2, 24 h
T1 construct: expressed in transfected cells; host or cells: HEK293T
T1 sequence (Q9HC29 whole entry): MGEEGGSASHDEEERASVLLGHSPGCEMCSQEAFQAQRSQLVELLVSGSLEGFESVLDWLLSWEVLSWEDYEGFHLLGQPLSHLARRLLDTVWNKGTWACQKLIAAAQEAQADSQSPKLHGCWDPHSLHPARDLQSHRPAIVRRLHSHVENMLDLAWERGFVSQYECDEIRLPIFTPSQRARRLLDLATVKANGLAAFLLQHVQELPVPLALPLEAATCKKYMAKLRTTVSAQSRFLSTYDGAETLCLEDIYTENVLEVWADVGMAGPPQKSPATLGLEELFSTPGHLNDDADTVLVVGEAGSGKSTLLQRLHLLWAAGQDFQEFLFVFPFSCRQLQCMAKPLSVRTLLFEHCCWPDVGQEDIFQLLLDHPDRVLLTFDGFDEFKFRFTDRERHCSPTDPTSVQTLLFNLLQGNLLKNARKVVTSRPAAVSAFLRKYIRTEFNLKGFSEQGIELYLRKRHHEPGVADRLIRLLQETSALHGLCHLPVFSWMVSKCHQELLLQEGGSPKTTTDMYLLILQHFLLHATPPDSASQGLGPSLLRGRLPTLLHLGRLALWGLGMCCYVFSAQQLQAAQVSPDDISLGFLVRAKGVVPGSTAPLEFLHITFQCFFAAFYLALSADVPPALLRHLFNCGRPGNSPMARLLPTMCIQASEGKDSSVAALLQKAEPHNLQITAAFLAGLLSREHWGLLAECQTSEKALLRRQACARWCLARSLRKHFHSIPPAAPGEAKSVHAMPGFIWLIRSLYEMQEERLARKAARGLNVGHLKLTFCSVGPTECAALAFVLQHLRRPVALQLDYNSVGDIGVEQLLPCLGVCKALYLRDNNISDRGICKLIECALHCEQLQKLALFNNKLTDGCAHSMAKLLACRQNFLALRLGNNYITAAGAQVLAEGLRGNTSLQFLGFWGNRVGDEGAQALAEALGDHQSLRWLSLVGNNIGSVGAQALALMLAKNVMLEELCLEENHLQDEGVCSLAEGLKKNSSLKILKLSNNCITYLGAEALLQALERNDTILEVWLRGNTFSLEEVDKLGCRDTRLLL
Procedure: FIG. 1. Detection of MDP-derived muramyl peptides by Nod2. A, schematic representation of the muramyl peptides used in this study. B, Human HEK293 epithelial cells were transfected with several muramyl peptides (MDP, M-TriLys, Anh-M-TriLys, M-TetraLYS and Anh-M-TetraLYS) at the following concentrations: 10 nM (white bars), 50 nM (grey bars) or 250 nM (black bars) in the presence of an expression vector for Nod2 . The activity of a NF-κB-driven luciferase reporter gene was measured, and Nod2-dependent activation of the reporter gene in the presence of muramyl peptides was reported to the one obtained without stimulation with muramyl peptides. […] Experiments were performed three times with similar results.
In search for MDP-derived muramyl peptides that could stimulate the Nod2 signaling pathway, the inventors generated several molecules differing in the length of their peptidic moiety, including M-TriLys and M-TetraLys (FIG. 1A). These molecules were then tested for their ability to activate Nod2 using co-transfection assays in HEK293T epithelial cells and measuring NF-κB activity as a read-out (FIG. 1B). […] Here, a larger range of muramyl peptide concentration was used (10 nM up to 250 nM) to allow for the identification of even weak inducers of the Nod2 pathway.
HEK293T cells were cultured in DMEM containing 10% fetal calf serum. Prior to transfection, HEK293T cells were seeded into 24 well plates at a density of 1×10^5 cells/ml as described previously (26), MDP LD was from Calbiochem and reported to be 98% pure by TLC.
The expression plasmid for Nod2 has been previously described (27). The NF-κB luciferase reporter plasmid was from Stratagene. Transfections were carried out in […] cells as previously described (26).
Studies examining the synergistic activation of NF-κB by muramyl peptides in cells over expressing Nod2 were carried out as originally described by Inohara et al. (28). Briefly, HEK293T cells were transfected overnight with 10 ng of Nod2 plus 75 ng of NF-κB luciferase reporter plasmid. At the same time, muramyl peptides were added to cell culture medium and the synergistic NF-κB-dependent luciferase activation was then measured following 24 h of co-incubation. NF-κB-dependent luciferase assays were performed in duplicate and data represent at least 3 independent experiments.

[2] = tested on: PBMCs from Nod2fs patients; test: Cytokine response of PBMCs from Crohn's disease patients homozygous for the Nod2fs frameshift mutation; format: cell-based, human; conditions: 50 nM, overnight (18 hours)
Procedure: as §1, §2, §3, §4

[3] = tested on: PBMCs from healthy donors; test: Cytokine response of PBMCs from healthy donors (CTR); format: cell-based, human; conditions: 50 nM, overnight (18 hours)
Procedure: as §1, §2, §3, §4

CC(=O)N[C@H]1C(O)O[C@H](CO)[C@@H](O)[C@@H]1O[C@H](C)C(=O)N[C@@H](C)C(=O)N[C@H](CCC(=O)O)C(N)=O (mixture of isomers) [MDP, muramyl dipeptide]
cytokine response (IL-1β, IL-10, TNFα, intracellular IL-1α) to muramyl peptides [1]: still reacted
concentration at which activation of Nod2 was maximal (Nod2; HEK293T co-transfection, NF-κB read-out, 10 pmoles per milliliter of culture medium): 10 nM
activation of Nod2 (NF-κB-driven luciferase reporter) (Nod2): activated Nod2 with similar efficiency
cytokine response (IL-1β, IL-10, TNFα, intracellular IL-1α) to muramyl peptides [2]: not stimulated
cytokine response (IL-1β, IL-10, TNFα, intracellular IL-1α) to muramyl peptides [3]: potent activators

M-TriLys
cytokine response (IL-1β, IL-10, TNFα, intracellular IL-1α) to muramyl peptides [1]: still reacted
activation of Nod2 (NF-κB-driven luciferase reporter) (Nod2): activated Nod2 with similar efficiency
cytokine response (IL-1β, IL-10, TNFα, intracellular IL-1α) to muramyl peptides [2]: not stimulated
cytokine response (IL-1β, IL-10, TNFα, intracellular IL-1α) to muramyl peptides [3]: potent activators

diaminopimelic acid (DAP)-containing muramyl tripeptide [M-TriDAP]
cytokine response (IL-1β, IL-10, TNFα, intracellular IL-1α) to muramyl peptides [1]: efficiently stimulated; also recorded: globally as potent as MDP
activation of Nod2 (NF-κB-driven luciferase reporter) (Nod2): failed to activate Nod2
cytokine response (IL-1β, IL-10, TNFα, intracellular IL-1α) to muramyl peptides [2]: failed to induce cytokine response; also recorded: unable to stimulate
cytokine response (IL-1β, IL-10, TNFα, intracellular IL-1α) to muramyl peptides [3]: efficiently stimulated; also recorded: globally as potent as MDP

— patent US20060251659A1, “Method for screening molecules that restore NOD1 activity in cells containing an NOD2 mutation that reduces or eliminates NOD1 activity” (priority 2005, published 2006)
